What all share (assay): NCI-60 cell line screen, 48 h
The test system of test [1] is DLD-1.
Test [2] has as its system RXF 631.
The subject of test [3] is KM-20L2.
Test [4] has as its system DMS-273.
In test [5] the test system is M19-MEL.
The subject of test [6] is DMS-114.
Test [7] concerns XF498.
Test [8] deals with HOP-18.

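In this assay, cells in 96-well plates receive the compound at five concentrations for 48 hours. Endpoints are linearly interpolated between the surrounding concentrations. At the GI50, growth is halved.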 Calls of active or inactive are those of the source. Cut-off read from the data, not from the text of the source: active = GI50 up to about 1.1 µM and inactive = higher.

Turning to `O=c1[nH]c(=O)n(C2CC(O)C(CO)O2)cc1/C=C/Br` (configuration not stated), the GI50 in test [1], in test [2], in test [3], in test [4], in test [5] and in test [6] was > 100 µM (inactive) each time. In addition, the GI50 in test [7] is > 100 µM (inactive).

For the compound `CNC(=O)OCc1nc(SSc2nc(COC(=O)NC)c(COC(=O)NC)n2C)n(C)c1COC(=O)NC`, the GI50 in test [8], in test [1], in test [2], in test [3], in test [4] and in test [5] was > 100 µM (inactive) throughout. In addition, the GI50 in test [6] and in test [7] was > 100 µM (inactive) in each case.

For the compound `CNCCCCN(C)/[N+]([O-])=N\O`, the GI50 in test [8], in test [1], in test [2], in test [3], in test [4] and in test [5] was > 100 µM (inactive) throughout. Besides, in test [6], the GI50 was > 100 µM (inactive).

In the case of `C/C(=N\NC(N)=S)c1ccc2c(c1)OCO2`, the GI50 is > 100 µM (inactive) in test [8]; 61.9 µM (inactive) in test [1]; > 100 µM (inactive) in test [2]; > 100 µM (inactive) in test [3]; > 100 µM (inactive) in test [5]; 94.8 µM (inactive) in test [6]. The GI50 in test [7] was > 100 µM (inactive).

As to `O=C(Nc1c(O)[nH]c(=S)[nH]c1=O)c1ccccn1`, the GI50 in test [8], in test [1], in test [2], in test [3], in test [5] and in test [6] was > 100 µM (inactive) throughout.

For the compound `CSc1c(C)c(C)nn1-c1ccccc1`, the GI50 in test [8] was < 0.01 µM (active); in test [1] it was > 100 µM (inactive); in test [2] it was > 100 µM (inactive); in test [3], > 100 µM (inactive); in test [4], > 100 µM (inactive); in test [6] it was > 100 µM (inactive). Moreover, the GI50 in test [7] was 59.8 µM (inactive).

Consider `CC(C)(C)OC1=C(OC(C)(C)C)C(O)(c2ccccc2)C1=O` (configuration not stated), for which the GI50 in test [8], in test [1], in test [2], in test [4], in test [5] and in test [6] was > 100 µM (inactive) in each case.

`COC(=O)C1=C(C(=O)OC)C2(C3C(SC)=CC(C)(C)CC3S1)N(Cc1ccccc1)CCN2Cc1ccccc1` (configuration not stated): the GI50 in test [8], in test [1], in test [2], in test [3], in test [4] and in test [5] was > 100 µM (inactive) each time. Also, the GI50 in test [6] and in test [7] was > 100 µM (inactive) in each case.

In the case of `CCCCCCCCCCCC(=O)C1=C(O)CC(O)CC1=O` (configuration not stated), the GI50 in test [8] was > 100 µM (inactive); in test [2] it was > 100 µM (inactive); in test [3], > 100 µM (inactive); in test [4], 84.3 µM (inactive); in test [5] it was > 100 µM (inactive); in test [6], 64.3 µM (inactive). For the same compound, the GI50 in test [7] is > 100 µM (inactive).

For the compound `CCN(CC)CCCC(C)Nc1c(Sc2cnc3cc(Cl)ccc3c2NC(C)CCCN(CC)CC)cnc2cc(Cl)ccc12` (configuration not stated), the GI50 in test [8] was 2.17 µM (inactive); in test [1] it was 1.91 µM (inactive); in test [2], 2.08 µM (inactive); in test [3], 1.66 µM (inactive); in test [4] it was 1.72 µM (inactive); in test [5] it was 1.62 µM (inactive).

Take `CC(=O)c1c2c(cc3c1CC1(C3)Cc3cc4c(c(C(C)=O)c3C1)CCC4)CCC2`: the GI50 in test [8], in test [1], in test [2], in test [5], in test [6] and in test [7] was > 100 µM (inactive) in each case.

`CC1=CC=NN2C(=O)[C@H](C)C2C1` (some centres not stated): the GI50 in test [8], in test [1], in test [2], in test [3], in test [4] and in test [5] was > 100 µM (inactive) throughout. The GI50 in test [6] and in test [7] was > 100 µM (inactive) in each case.

With `Cc1ccc(S(=O)(=O)C(CC(=O)N2CCCC2)C(=O)c2ccccc2)cc1` (configuration not stated), the GI50 in test [8] was > 100 µM (inactive); in test [1], 71.1 µM (inactive); in test [2] it was > 100 µM (inactive); in test [4] it was 97.1 µM (inactive); in test [6], > 100 µM (inactive); in test [7] it was > 100 µM (inactive).

For `CC(C)(C)c1cc2nc(c1)C(C(F)(F)F)(C(F)(F)F)OB(Br)OC2(C(F)(F)F)C(F)(F)F`, the GI50 was < 0.01 µM (active) in test [8]; 0.0248 µM (active) in test [1]; 0.0836 µM (active) in test [2]; < 0.01 µM (active) in test [3]; < 0.01 µM (active) in test [4]; 0.0268 µM (active) in test [5]. Also, the figures for the GI50 in test [6] and in test [7] were < 0.01 µM (active) and 1.04 µM (active), respectively.
